According to the NIST ThermoML archive (doi:10.1016/j.jct.2016.02.016):

Legend:
[1] = refractive index (Na D-line) (dimensionless); conditions: 101.33 kPa, Liquid, Standard Abbe refractometry
[2] = 101.33 kPa, Liquid; for speed of sound: Sing-around technique in a fixed-path interferometer; for mass density: Vibrating tube method
[3] = xn = mol fraction of the nth substance listed; conditions: 100 kPa, Liquid; for speed of sound: Frequency=3 MHz, Sing-around technique in a fixed-path interferometer; for mass density: Vibrating tube method
[4] = refractive index (Na D-line) (dimensionless); xn = mol fraction of the nth substance listed; conditions: 100 kPa, Liquid, Standard Abbe refractometry

CCCCCC(C)=O [2-heptanone]
Conditions	mass density, 293.15 K [kg/m3]	mass density, 298.15 K [kg/m3]	mass density, 303.15 K [kg/m3]	refractive index, 298.15 K	speed of sound, 293.15 K [m/s]	speed of sound, 298.15 K [m/s]	speed of sound, 303.15 K [m/s]
[1]	–	–	–	1.40688	–	–	–
[2]	815.39	811.08	806.81	–	1282.1	1262.7	1244.4

CCCCCC(C)=O [2-heptanone] + CN(C)C=O
298.15 K
Conditions	mass density, [3] [kg/m3]	refractive index, [4]	speed of sound, [3] [m/s]
x2 = 0	811.08	1.40688	1262.7
x2 = 0.053	815.095	1.40756	1268.2
x2 = 0.0936	818.298	1.40811	1272.9
x2 = 0.1502	822.964	1.4089	1279
x2 = 0.2011	827.389	1.40962	1285.3
x2 = 0.2495	831.808	1.41034	1291.3
x2 = 0.296	836.272	1.41107	1297.5
x2 = 0.3419	840.896	1.41182	1304
x2 = 0.3963	846.646	1.41276	1312.2
x2 = 0.4324	850.691	1.41341	1318
x2 = 0.4957	858.13	1.41462	1328.7
x2 = 0.5537	–	1.41582	–
x2 = 0.5985	871.481	1.41679	1348.2
x2 = 0.6368	876.894	1.41766	1356.2
x2 = 0.6999	886.398	1.41919	1370.3
x2 = 0.7433	893.368	1.42032	1380.8
x2 = 0.8482	911.958	1.42329	1408.7
x2 = 0.8634	914.867	1.42376	1413.1
x2 = 0.8985	921.855	1.42488	1423.7
x2 = 0.948	932.305	1.42651	1439.5

CC(C)=O [acetone]
Conditions	mass density, 293.15 K [kg/m3]	mass density, 298.15 K [kg/m3]	mass density, 303.15 K [kg/m3]	refractive index, 293.15 K	refractive index, 298.15 K	speed of sound, 293.15 K [m/s]	speed of sound, 298.15 K [m/s]	speed of sound, 303.15 K [m/s]
[1]	–	–	–	1.35845	1.35386	–	–	–
[2]	790.19	784.43	778.63	–	–	1183.6	1163.6	1139.9

CCC(C)=O [butanone]
Conditions	mass density, 293.15 K [kg/m3]	mass density, 298.15 K [kg/m3]	mass density, 303.15 K [kg/m3]	refractive index, 293.15 K	refractive index, 298.15 K	refractive index, 303.15 K	speed of sound, 293.15 K [m/s]	speed of sound, 298.15 K [m/s]	speed of sound, 303.15 K [m/s]
[1]	–	–	–	1.37872	1.37605	1.37351	–	–	–
[2]	805.06	799.78	794.55	–	–	–	1212.6	1191.5	1172

CN(C)C=O [dimethylformamide]
Conditions	mass density, 293.15 K [kg/m3]	mass density, 298.15 K [kg/m3]	mass density, 303.15 K [kg/m3]	refractive index, 293.15 K	refractive index, 298.15 K	refractive index, 303.15 K	speed of sound, 293.15 K [m/s]	speed of sound, 298.15 K [m/s]	speed of sound, 303.15 K [m/s]
[1]	–	–	–	1.43055	1.4284	1.4261	–	–	–
[2]	948.82	944.06	939.28	–	–	–	1476.7	1458.6	1438.8

CN(C)C=O [dimethylformamide] + CC(C)=O
x1 = 1
Conditions	mass density, 293.15 K [kg/m3]	mass density, 298.15 K [kg/m3]	mass density, 303.15 K [kg/m3]	refractive index, 293.15 K	refractive index, 298.15 K	speed of sound, 293.15 K [m/s]	speed of sound, 298.15 K [m/s]	speed of sound, 303.15 K [m/s]
[3]	948.82	944.06	939.28	–	–	1476.7	1458.6	1438.8
[4]	–	–	–	1.43055	1.4284	–	–	–

CN(C)C=O [dimethylformamide] + CCC(C)=O
x1 = 1
Conditions	mass density, 293.15 K [kg/m3]	mass density, 298.15 K [kg/m3]	mass density, 303.15 K [kg/m3]	refractive index, 293.15 K	refractive index, 298.15 K	refractive index, 303.15 K	speed of sound, 293.15 K [m/s]	speed of sound, 298.15 K [m/s]	speed of sound, 303.15 K [m/s]
[3]	948.82	944.06	939.28	–	–	–	1476.7	1458.6	1438.8
[4]	–	–	–	1.43055	1.4284	1.4261	–	–	–

CN(C)C=O [dimethylformamide] + CCCC(C)=O
x1 = 1
Conditions	mass density, 293.15 K [kg/m3]	mass density, 298.15 K [kg/m3]	mass density, 303.15 K [kg/m3]	refractive index, 293.15 K	refractive index, 298.15 K	refractive index, 303.15 K	speed of sound, 293.15 K [m/s]	speed of sound, 298.15 K [m/s]	speed of sound, 303.15 K [m/s]
[3]	948.82	944.06	939.28	–	–	–	1476.7	1458.6	1438.8
[4]	–	–	–	1.43055	1.4284	1.4261	–	–	–

CN(C)C=O [dimethylformamide] + CCCCCC(C)=O
298.15 K, x1 = 1
Conditions	mass density [kg/m3]	refractive index	speed of sound [m/s]
[3]	944.06	–	1458.6
[4]	–	1.4284	–

CCCC(C)=O [pentan-2-one]
Conditions	mass density, 293.15 K [kg/m3]	mass density, 298.15 K [kg/m3]	mass density, 303.15 K [kg/m3]	refractive index, 293.15 K	refractive index, 298.15 K	refractive index, 303.15 K	speed of sound, 293.15 K [m/s]	speed of sound, 298.15 K [m/s]	speed of sound, 303.15 K [m/s]
[1]	–	–	–	1.39026	1.38793	1.38523	–	–	–
[2]	806.83	801.99	796.73	–	–	–	1232.4	1211.9	1191.7
